In test [1] the target is T1, LiGAPDH (Leptospira interrogans, UniProt Q72QM3).
T1 construct: gene gapA; full-length, N-terminal His6 tag and TEV site (pETM-11), expressed in E. coli Rosetta(DE3); homotetramer; 36648 Da subunit
The test can be described thus: NADH formation at […] nm, initial rates, nonlinear fit. It counts as biochemical.

The target in test [2] is T1, LiGAPDH. The test can be described thus: NADH formation at […] nm, nonlinear fit. It counts as biochemical. As to conditions: substrate inhibition constant, 2 mM NAD+, 40 mM Tris-HCl pH 8.5, 2 mM EDTA, 25 °C.
For test [3], the target named is T1, LiGAPDH. The test can be described thus: X-ray crystal structure, […] Å. Format: binding. As to conditions: active site, N-terminal Rossmann domain, all eight subunits.

T1 sequence (Q72QM3 entry or part of it): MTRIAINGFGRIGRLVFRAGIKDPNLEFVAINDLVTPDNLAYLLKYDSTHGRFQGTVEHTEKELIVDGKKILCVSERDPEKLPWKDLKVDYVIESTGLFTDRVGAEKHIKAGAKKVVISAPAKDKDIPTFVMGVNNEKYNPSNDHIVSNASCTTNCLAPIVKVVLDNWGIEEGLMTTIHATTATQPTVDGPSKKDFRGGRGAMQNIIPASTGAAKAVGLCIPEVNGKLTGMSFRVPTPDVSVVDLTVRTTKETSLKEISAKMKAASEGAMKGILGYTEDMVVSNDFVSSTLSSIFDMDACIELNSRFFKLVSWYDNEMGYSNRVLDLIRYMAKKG

The term Ki denotes a measure of affinity in units of concentration, obtained from inhibition or displacement. Low values mean tighter binding, high ones weaker binding. Molecule `CCCCCCCCCCCCCCCc1cccc(O)c1C(=O)O` [anacardic acid] showed an inhibition constant (Ki) in test [1] of 41 ± 2 µM.
Turning to `O=C[C@H](O)COP(=O)(O)O` [G3P], in test [2] (5 mM phosphate), the “KSS” value stood at 2.0 ± 0.3 mM.
As to `COc1cc(/C=C/C(=O)CC(=O)/C=C/c2ccc(O)c(OC)c2)ccc1O` [curcumin], the Ki in test [1] was 59 ± 3 µM.
In the case of `NC(=O)c1ccc[n+]([C@@H]2O[C@H](COP(=O)(O)OP(=O)(O)OC[C@H]3O[C@@H](n4cnc5c(N)ncnc54)[C@H](O)[C@@H]3O)[C@@H](O)[C@H]2O)c1` [NAD^+], the “X-ray crystal structure, 2.37 Å” value in test [3] is “The crystal structure corresponds to the holoenzyme with an NAD^+ molecule tightly bound into the active”.
For the molecule `O=P(O)(O)O` [Pi], in test [2] (2 mM G3P), the “KSS” value came to 10 ± 1 mM.

The values above are taken from PMC10318897, “The structure of Leptospira interrogans GAPDH sheds light into an immunoevasion factor that can target the anaphylatoxin C5a of innate immunity” (Frontiers in Immunology, 2023).
